The source of these data is patent US10995225B2, “Macrocyclic polyphenols for universal coatings” (The Regents of the University of California, priority 2016, dated 2021).

Molecules are shown by their SMILES.

Data set [1] can be described thus: Coating stability assay: coated substrates incubated overnight in PBS at 36° C. Type of data set: physicochemical. On the procedure:
Coating Compositions and Stability Assays. A macrocyclic compound (1 mg/mL) was dissolved in DMSO. To this solution was added to 10 mM to 1.5 M salts in aqueous buffer (pH 4-10). Various substrates were coated by dipping the substrates in the coating mixture (e.g., see FIGS. 12-16) and the stability of the coating compositions were tested by incubating the coated substrates in PBS at 36° C. overnight (e.g., see FIG. 7-16). […] For example, 1 mg/mL of the arene were dissolved in DMSO (10 volume % of the total coating solution). To this solution the buffered aqueous solution containing the salt of choice and the buffer (90% of total coating solution) was added. Then the pH was adjusted using HCl or NaOH solutions. The solution was transferred to a glass vial and the different substrates where added. The vial was sealed and placed on a rocking platform for 24 h. The substrate was rinsed with DI H2O then dried with a N2 flow. Buffers used included Na2CO3 (pH 11), bicine (ph 8-9), bis-tris (pH 6-7), tris (pH 7), sodium acetate (pH 4-5). The Buffer concentration used were between 0.1 and 2.2 M. Salt concentration used were between 0 and 1.5 M.

Data set [2] can be described thus: Sessile Contact Angle / wettability of coated PDMS. Type of data set: physicochemical. On the procedure: Sessile Contact Angle: 2 μL drops were placed on planar samples prepared as in the previous section. Contact angles were measured using Ramé-Hart Droplmage analysis software and hardware setup.

Turning to `Oc1ccc(C2c3cc(c(O)cc3O)C(c3ccc(O)c(O)c3)c3cc(c(O)cc3O)C(c3ccc(O)c(O)c3)c3cc(c(O)cc3O)C(c3ccc(O)c(O)c3)c3cc2c(O)cc3O)cc1O` [D-D macrocycle], the “optimal pH for coating stability” value in data set [1] (0.2M MgCl2 in Bicine buffer) was found to be 8.5; in data set [1] (pH screen, MgCl2 salt) it was 8.0. Also, the “optimal salt concentration for coating stability” value in data set [1] (CaCl2 in Gly buffer) stood at 0.5 M; in data set [1] (MgCl2, pH 8.5, Bicine buffer) it was 0.5 M.

Regarding `Oc1cccc(O)c1O` [pyrogallol], in data set [2], the “wettability of PDMS” value was “increase the wettability of PDMS”.
